These results are taken from US8940497B2, “Enzyme regulating ether lipid signaling pathways” (The Scripps Research Institute, priority 2006, dated 2015).

In assay [1] the test system is background 2-thioacetyl MAGE hydrolyzing activity in membrane proteomes. Description: Background 2-thioacetyl MAGE hydrolyzing activity in membrane proteomes. Type of assay: biochemical. The note with it: FIG. 14. How it is done:
KIAA1363-transfected cell lines were used for substrate-based enzyme activity assays. Membrane proteomes were adjusted to 0.5 mg/ml in 50 mM tris pH 7.4 buffer containing 5 mM CHAPS detergent. Immediately prior to the assay, 5,5′-dithiobis-(2-nitrobenzoic acid) (DTNB, Sigma) was added at 0.5 mM to the membrane proteome to prepare the Assay Buffer. For analysis of inhibitors, 1 ul of a 50× inhibitor solution in DMSO was added to 48 ul of Assay Buffer and preincubated for 20 min at RT. The substrate 2-thioacetyl MAGE (Cayman Chemical) was prepared by evaporating off the original solvent under nitrogen and redissolving the residue in DMSO. 1 ul of 5 mM 2-thioacetyl MAGE stock is added to each assay well to begin the assay. Absorbance is determined at A405 nm.
The background 2-thioacetyl MAGE hydrolyzing activity in membrane proteomes that is not inhibited by AS-115 is inhibited by the broad serine protease inhibitor PMSF (FIG. 14). The IC50 of AS-115 was measured using the 2-thioacetyl MAGE substrate-based assay with Flag-KIAA1363/293T cell membrane proteome (FIG. 15).

The test system of assay [2] is SKOV-3 cells. Kind of assay: Metabolic labeling of SKOV-3 cells with 13C-2-acetyl MAGE. Type of assay: cell-based, human. The note with it: 10 μM 13C-2-acetyl MAGE, 1 h. How it is done: Cells were cultured and maintained as described above. Cells used for 13C-2-acetyl MAGE experiments were incubated in BSA-RPMI containing inhibitor or vehicle for […]. BSA-RPMI medium was then removed, supplemented with 10 μM 13C-2-acetyl MAGE or DMSO, and re-applied to cells. After incubation for 1 h the cells were harvested and metabolomes were analyzed by LC-MS. 13C-MAGE experiments were conducted by addition of 13C-MAGE or DMSO containing BSA-RPMI directly after washing with PBS. Cells were then incubated for 4 h, harvested, and analyzed by LC-MS.

The next assay has as its system C8161 melanoma cells. Kind of assay: LC-MS MAGE lipid levels in inhibitor-treated melanoma cells. Type of assay: cell-based, human. The conditions noted are these: compared to DMSO controls. The procedure: (§1) The following LC-MS conditions were used for analysis of cancer cell metabolomes. Cell pellets were harvested by scraping, isolated by centrifugation at 1,400×g, and dounce-homogenized in 4 mL of a 2:1:1 mixture of chloroform:methanol:Tris buffer (50 mM Tris*HCl, pH 8.0). Samples that were analyzed by targeted LC-MS were homogenized in the presence of the following synthetic standards: C15:0 MAG (50 pmol), C17:0 LPA (50 pmol), and 13C-C16:0 MAGE (25 pmol). Organic and aqueous layers were separated by centrifugation at 1,260×g for 5 min. The organic layer was then removed, dried under a stream of N2, and re-solubilized in 100 μL of chloroform, of which 30 μL was analyzed by LC-MS. Extraction of LPA was performed by acidifying the remaining aqueous layer to a final concentration of 5% formic acid, followed by the addition of 2 mL of chloroform. The mixture was vortexed, the organic layer removed, concentrated to dryness, and dissolved in 100 μL of chloroform, of which 30 μL was analyzed by LC-MS.
(§2) LC-MS analysis was performed using an Agilent 1100 LC-MSD SL instrument. […] Mobile phase A was composed of a 95:5 ratio of water:methanol and mobile phase B consisted of 2-propanol, methanol, and water in a 60:35:5 ratio. Solvent modifiers such as 0.1% formic acid and 0.1% ammonium hydroxide were used to assist ion formation as well as improve the LC resolution in both positive and negative ionization modes respectively. The flow rate for each run started at 0.1 mL/min for 5 min, to alleviate backpressure associated with injecting chloroform. The gradient started at 0% B and increased linearly to 100% B over the course of 40 min with a flow rate of 0.4 mL/min, followed by an isocratic gradient of 100% B for 7 min before equilibrating for 8 min at 0% B with a flow rate of 0.5 mL/min.
(§3) MS analysis was performed with an electrospray ionization (ESI) source. […] Differentially expressed metabolites between sample pairs were identified using the XCMS analyte profiling software (http://metlin/download) that aligns mass peaks from two LC-MS traces and quantifies the relative intensities of global metabolites (5). Significant inhibitor-sensitive peak changes were confirmed by manual quantification using the area under the peak normalized to total ion current. […] Peaks were quantified by measuring the area under the peak and normalized to an internal standard (C15:0 MAG) or endogenous lipid (palmitic acid). […]
(§4) Human ovarian cancer cell lines were obtained form the National Cancer Institute's Developmental Therapeutics Program. […] At approximately 80% confluency, cells were trypsinized, counted with the aid of a hemocytometer, and 2.5×10^6 cells were plated in 6 cm dishes. […] After incubation for 4 h the cells were harvested and analyzed by ABPP or LC-MS. […]

A further assay has as its system MUM-2B melanoma cells. The description is as above. Type of assay: cell-based, human. The conditions noted are these: compared to DMSO controls. The procedure:
as §1, §2, §3, §4

Assay [3] has as its system SKOV-3 cells. Kind of assay: Targeted LC-MS analysis of lipid levels in inhibitor-treated cells. Type of assay: cell-based, human. The procedure: as §1, §2
MS analysis was performed with an electrospray ionization (ESI) source. The capillary voltage was set to 3.0 kV and the fragmentor voltage to 100V. The drying gas temperature was 350° C., the drying gas flow rate was 10 L/min, and the nebulizer pressure was 35 psi. Untargeted data was collected using a mass range of 200-1000 Da and exported as common data format (.CDF) files for computational analysis. Differentially expressed metabolites between sample pairs were identified using the XCMS analyte profiling software (http://metlin/download) that aligns mass peaks from two LC-MS traces and quantifies the relative intensities of global metabolites (5). Significant inhibitor-sensitive peak changes were confirmed by manual quantification using the area under the peak normalized to total ion current. Targeted LC-MS measurements were made using selected ion monitoring (SIM). Peaks were quantified by measuring the area under the peak and normalized to an internal standard (C15:0 MAG) or endogenous lipid (palmitic acid). Absolute MAGE levels were estimated by comparison to a 13C-MAGE standard.
Human ovarian cancer cell lines were obtained form the National Cancer Institute's Developmental Therapeutics Program. The melanoma lines C8161 and MUM-2B were obtained form Mary Hendrix. Cells were maintained in RPMI medium 1640 with 10% (v/v) fetal calf serum at 37° C. in a humidified atmosphere of 5% CO2/95% air. At approximately 80% confluency, cells were trypsinized, counted with the aid of a hemocytometer, and 2.5×10^6 cells were plated in 6 cm dishes. 20 h after plating cells were washed twice with PBS and supplemented with serum free RPMI containing 0.5% BSA (Sigma)(BSA-RPMI) with AS115 (0.01-10 μM) or vehicle (DMSO) at 0.1%. After incubation for 4 h the cells were harvested and analyzed by ABPP or LC-MS.
By extension, the m/z 345 and 347 metabolites were interpreted to represent the C18:1 and C18:0 MAGEs, respectively. […] MAGE levels were measured by targeted LC-MS analysis of SKOV-3 cells treated with AS115 (5 μM) or DMSO for 4 h using a 13C-C16:0 MAGE internal standard. Values are represented as pmol/10^6 cells. […]

“Also recorded” adds a separate entry of the source.

Consider `CCCCOCC1CCCCC1COCCNC(=O)Oc1ccccc1F` (stereo not shown) [AS115], for which the “Background 2-thioacetyl MAGE hydrolyzing activity” value in assay [1] was “not inhibited”. Moreover, in the assay with SKOV-3 cells [2], the “Levels of 2-acetyl MAGE as judged by metabolic labeling” value was “significantly stabilized” and the “PAF level in metabolic labeling experiments” value was “accumulation”. Further, the “Levels of MAGE lipids” value in the assay with C8161 melanoma cells was “significantly reduced”. The “Levels of MAGE lipids” value in the assay on MUM-2B melanoma cells was “significantly reduced”. Moreover, in the assay with SKOV-3 cells [3], the “Basal levels of 2-acetyl MAGE” value is “not significantly altered” and the “Basal levels of PAF” value is “not significantly altered”. Moreover, the “Absolute level of MAGE lipid C18:1” value in the assay with SKOV-3 cells [3] (5 μM, 4 h, 13C-C16:0 MAGE internal standard, DMSO 12.1 ± 0.4) came to 4.0 ± 0.7 pmol/10^6 cells. For the same compound, in the assay on SKOV-3 cells [3] (5 μM, 4 h, 13C-C16:0 MAGE internal standard, DMSO 39.5 ± 3.7), the “Absolute level of MAGE lipid C18:0” value came to 7.6 ± 2.3 pmol/10^6 cells. In addition, the “Absolute level of MAGE lipid C16:0” value in the assay with SKOV-3 cells [3] (5 μM, 4 h, 13C-C16:0 MAGE internal standard, DMSO 94.7 ± 6.6) is reported as 19.3 ± 2.2 pmol/10^6 cells. Further, in the assay with SKOV-3 cells [3] (compared to DMSO controls), the “Levels of MAGE lipids” value was “significantly lowered; also recorded: reduce”. In addition, in the assay with SKOV-3 cells [3] (vs vehicle, FIG. 7B), the “Levels of alkyl-LPA” value is recorded as “reduce” and the “Levels of alkyl-LPC” value was “reduce”.
